This is an account of results in patent US11760754B2, “Heterocyclic mitochondrial activity inhibitors and uses thereof” (UNIVERSITÉ DE MONTRÉAL, priority 2017, dated 2023).

Assay [1] relates to OCI-AML3 cells. Description: OCI-AML3 cell growth inhibition, dose-response viability assay (CellTiterGlo). The assay is classed as cell-based. Particulars: for EC50: Homo sapiens, OCI-AML-3, 144 h, read-out: AML-3 EC50. The gist of the method:
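OCI-AML3 cells seeded, then exposed to compound in serial dilutions from 10 μM to 0.5 nM, in duplicate or quadruplicate. Viability read by CellTiter-Glo.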

A further assay has as its system MLL-AF9 cells. Description: MLL-AF9 leukemia cell growth inhibition, dose-response viability assay (CellTiterGlo). The assay is classed as cell-based, murine. The settings on record: Mus musculus, MLL-AF9, 120 h, read-out: MLL-AF9 EC50. In a few lines: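 Murine MLL-AF9 leukemia cells (female, MSCV MLL-AF9 IRES Puro transduced) were treated with serial compound dilutions from 10 μM to 0.5 nM in duplicates or quadruplicates. Viability read by CellTiterGlo dose-response.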

In the next assay the test system is AML patient cells. Description: Primary AML patient cell dose-response viability assay (chemical screen). The settings on record: for EC50: Homo sapiens.
Assay [2] concerns OCI-AML3 leukemic cells. Particulars: 500 nM, 24 h. An excerpt:
(§1) The following FACS antibodies were used: anti-human CD45 Pacific Blue (BioLegend 304029), CD45 fluorescein isothiocyanate (FITC; BioLegend 304006), CD33 phycoerythrin (PE; BD Bioscience 555450), CD33 BV421 (BD 562854), CD34 […] (APC; BD Bioscience 555824), CD34 APC (Stem Cell Technologies 10613), CD3 FITC (BD Bioscience 555332), CD4 APC-Cy7 (BD 560158), CD8 APC (BD 555369), CD3 PE-Cy5 (BD 555334), CD19 PE-Cy7(BD Bioscience 557835), anti-mouse CD45.1 APC-efluor730 (eBioscience 47-0453-82), ERBB2-PE (Biolegend®, 324406), Annexin V FITC (BD Bioscience®, 556419). Dead cells were stained using Propidium iodide at a final concentration of 1 μg/mL. For ROS quantification cells were stained with 1 μM H2DCFDA (Thermo Fisher, […]) under normal growth conditions. Cells were analyzed on LSRII® flow cytometer (BD Bioscience®), BD Canto® II cytometer (BD Bioscience) or on an IQue Screener (Intellicyt®) and results were analyzed with BD fluorescence-activated cell sorter (FACS) Diva®4.1 and FlowJo®X software.

In assay [3] the test system is OCI-AML3 cells.
From the text: as §1

For assay [4], the system named is Normal primitive CD34-positive cord blood cells. Description: cells. Particulars: Homo sapiens, CD34-positive cell, read-out: EC50 in normal primitive CD34-positive cord blood cells.
The subject of the next assay is OCI-AML5 cells. Particulars: 6-day culture, 384-well plates.
Assay [5] concerns OCI-AML3 leukemic cells. The procedure: Oxygen consumption rates and extracellular acidification rates were measured using a 96-well Seahorse Bioanalyzer XFe96® or XFe24® according to the manufacturer's instructions (Agilent Technologies). Seahorse XF Base medium was supplemented with 1 mM pyruvate, 2 mM glutamine and 10 mM glucose in the case of Mitochondrial Stress Test and with 1 mM pyruvate, 2 mM glutamine and no glucose in the case of Glycolytic Stress Test. The pH of the Seahorse media was then adjusted at 7.4 prior to assay. In brief, leukemic cells were seeded into Seahorse 96-well (or 24-well) plates pre-coated for 3 h with poly-lysine (Sigma-Aldrich, P4707) at a density of 75,000 cells/well in 100 μL (or 150,000 cells/well, in 150 μL) of temperature/CO2 pre-adjusted Seahorse media per well. The Seahorse plates were then centrifuged at 1400 rpm for 5 min. An additional 75 μL (or 375 μL) of Seahorse media was then added and cells were eventually analyzed following the manufacturer's instructions by adding compounds in a constant volume of 25 μL (or 75 μL). Compounds were acutely injected in cells at a final concentration of 1 μM for Mubritinib, 1 μM for Oligomycin, 0.5 μM for FCCP, 0.5 μM for Rotenone/Antimycin A, Glucose 10 mM and 2-Deoxy-Glucose 50 mM.

The subject of assay [6] is OCI-AML3 cells. The procedure: LC/MS metabolite measurements were carried out at the McGill Metabolomics platform. Authentic metabolite standards were purchased from Sigma-Aldrich Co., while the following LC/MS grade solvents and additives were purchased from Fisher: ammonium acetate, formic acid, water, methanol, and acetonitrile. OCI-AML3 cells (5 million cells, quadruplicates, treated with either DMSO or Mubritinib 500 nM for 20 h) were washed twice with ice-cold 150 mM ammonium formate pH 7.2. Metabolites were then extracted using 380 μl of LC/MS grade 50% methanol/50% water mixture and 220 μl of cold acetonitrile. Samples were then homogenized by 1.4 mm ceramic bead beating 2 min at 30 Hz (TissueLyser, Qiagen). A volume of 300 μl of ice-cold water and 600 μl of ice-cold methylene chloride were added to the lysates. Samples were vortexed and allowed to rest on ice for 10 min for phase separation followed by centrifugation at 4,000 rpm for 5 min. The upper aqueous layer was transferred to a fresh pre-chilled tube. Samples were eventually dried by vacuum centrifugation operating at −4° C. (Labconco) and stored at −80° C. until ready for LC-MS/MS data collection. For LC-MS/MS analysis, specimens were first re-suspended in 50 μl of water and clarified by centrifugation for 15 min at 15,000 rpm at 1° C. Samples were maintained at 4° C. for the duration of the LC-MS/MS analysis in the autosampler. Specimens were separated by U-HPLC (Ultra-High-Performance Liquid Chromatography) (1290 Infinity, Agilent Technologies) using a Scherzo SM-C18 (3 mm×150 mm) 3 μm column and guard column (Imtakt USA) operating at 10° C.
The source holds these as a separate data set.

The subject of assay [7] is pyruvate dehydrogenase (PDH). The settings on record: OCI-AML3 cells.
The subject of another assay is ETC complex I. Particulars: cell free assay. The text has this: The cell-free kit assay for ETC complex I activity was purchased from MitoSciences (Abcam, Cambridge, UK), and used in accordance with the manufacturer's protocol.
A further assay has as its system Complex I. The settings on record: OCI-AML3 cells, ubiquinone-dependent vs -independent activity.
Where [8] appears, read: 500 nM, 24 h, relative to DMSO control.

Where two headings read alike, the source gives them in different places.

As to `Fc1cc(C(F)(F)F)ccc1/C=C/c1nc(COc2ccc(CCCCc3cccnn3)cc2)co1` [Compound 138, (E)-2-(2-fluoro-4-(trifluoromethyl)styryl)-4-((4-(4-(pyridazin-3-yl)butyl)phenoxy)methyl)oxazole], the concentration for a half-maximal effect (EC50) was less than 50 nM in the assay with OCI-AML3 cells [1] and 50 to 100 nM in the assay with MLL-AF9 cells.
Taken in the same sequence, the figures for `Fc1cc(C(F)(F)F)ccc1/C=C/c1nc(COc2ccc(CCCCc3ncccn3)cc2)co1` [Compound 139, (E)-2-(2-fluoro-4-(trifluoromethyl)styryl)-4-((4-(4-(pyrimidin-2-yl)butyl)phenoxy)methyl)oxazole] were more than 10000 nM and 1000 to 10000 nM.
The like results for `Fc1cc(C(F)(F)F)ccc1/C=C/c1nc(COc2ccc(CCCCc3ccccn3)cc2)co1` [Compound 140, (E)-2-(2-fluoro-4-(trifluoromethyl)styryl)-4-((4-(4-(pyridin-2-yl)butyl)phenoxy)methyl)oxazole] were, in that order, more than 10000 nM and 1000 to 10000 nM.
Taken in the same sequence, the figures for `N#Cc1ccc(/C=C/c2nc(COc3ccc(SCCCn4ccnn4)cc3)co2)c(F)c1` [Compound 141, (E)-4-(2-(4-((4-((3-(1H-1,2,3-triazol-1-yl)propyl)thio)phenoxy)methyl)oxazol-2-yl)vinyl)-3-fluorobenzonitrile] were less than 50 nM and 50 to 100 nM.
For the compound `Fc1ccc2cc(-c3nc(COc4ccc(CCCCn5ccnn5)cc4)co3)oc2c1` [Compound 142, 4-((4-(4-(1H-1,2,3-triazol-1-yl)butyl)phenoxy)methyl)-2-(6-fluorobenzofuran-2-yl)oxazole], the EC50 in the assay on OCI-AML3 cells [1] was 500 to 1000 nM; with MLL-AF9 cells, 100 to 500 nM.
Taken in the same sequence, the figures for `Fc1ccc2cc(-c3nc(COc4ccc(CCCCn5ccnn5)cc4)co3)sc2c1` [Compound 143, 4-((4-(4-(1H-1,2,3-triazol-1-yl)butyl)phenoxy)methyl)-2-(6-fluorobenzo[b]thiophen-2-yl)oxazole] were 1000 to 10000 nM and 100 to 500 nM.
Taken in the same sequence, the figures for `Fc1cc(F)c2cc(-c3nc(COc4ccc(SCCCn5ccnn5)cc4)co3)[nH]c2c1` [Compound 144, 4-((4-((3-(1H-1,2,3-triazol-1-yl)propyl)thio)phenoxy)methyl)-2-(4,6-difluoro-1H-indol-2-yl)oxazole] were less than 50 nM and less than 50 nM.
Taken in the same sequence, the figures for `Cc1oc(/C=C/c2ccc(C(F)(F)F)cc2F)nc1COc1ccc(CCCCn2ccnn2)cc1` [Compound 145, (E)-4-((4-(4-(1H-1,2,3-triazol-1-yl)butyl)phenoxy)methyl)-2-(2-fluoro-4-(trifluoromethyl)styryl)-5-methyloxazole] were 500 to 1000 nM and 100 to 500 nM.
For the compound `Fc1cc(C(F)(F)F)ccc1/C=C/c1nc(CSc2ccc(CCCCn3ccnn3)cc2)co1` [Compound 146, (E)-4-(((4-(4-(1H-1,2,3-triazol-1-yl)butyl)phenyl)thio)methyl)-2-(2-fluoro-4-(trifluoromethyl)styryl)oxazole], the EC50 with OCI-AML3 cells [1] was 1000 to 10000 nM; in the assay with MLL-AF9 cells, 100 to 500 nM.
The like results for `Fc1cc(C(F)(F)F)ccc1/C=C/c1nc(COc2ccc(SCCn3ccnn3)cc2)co1` [Compound 147, (E)-4-((4-((2-(1H-1,2,3-triazol-1-yl)ethyl)thio)phenoxy)methyl)-2-(2-fluoro-4-(trifluoromethyl)styryl)oxazole] were, in that order, less than 50 nM and less than 50 nM.
On to `CS(=O)(=O)CCNCc1ccc(-c2ccc3ncnc(Nc4ccc(OCc5cccc(F)c5)c(Cl)c4)c3c2)o1` [Lapatinib, Lapatinib ditosylate, reference compound], for which the “OCI-AML3 cells sensitive to the compound (dose response)” value with OCI-AML3 cells [1] was “not”. In addition, in the assay on AML patient cells (41 AML patient specimens, primary screen), the “sensitivity of AML patient specimens” value is listed as “resistant”.
Turning to `FC(F)(F)c1ccc(/C=C/c2nc(COc3ccc(CCCCn4ccnn4)cc3)co2)cc1` [Mubritinib], in the assay on OCI-AML3 leukemic cells [2], the “level of ROS activity (hydroxyl, peroxyl), DCFDA” value is on record as “increased”. In the assay with OCI-AML3 cells [3] (100 nM 24 h, 6 mM NAC pre-incubation 4 hours), the “compound-induced apoptosis in the presence of ROS scavenger N-acetyl-cysteine (NAC)” value is recorded as “significantly decreased”. Further, the “Annexin V staining (marker of apoptosis)” value in the assay with OCI-AML3 cells [3] (24 hours, 100 nM or 10 μM) is “increase”. Also, in the assay on OCI-AML3 cells [3] (27 hours of treatment), the “number of dead (PI-positive) cells” value is on record as “increase”. For the same compound, in the assay with OCI-AML3 cells [3] (four days of treatment, dose-dependent), the “live cell counts (PI-negative cells)” value is reported as “reduction”. The EC50 is more than 375 nM in [4]; approximately 375 nM with AML patient cells (read-out: Median EC50 in the AML population tested); 96 nM with AML patient cells (read-out: median EC50, AML specimens with simultaneous mutations in NPM1, DNMT3A and FLT3-ITD); 423 nM in the assay on AML patient cells (read-out: median EC50, other AMLs subtypes). Also, the “OCI-AML5 response to compound-induced cell death” value with OCI-AML5 cells is listed as “resistant”. For the same compound, in the assay with OCI-AML3 leukemic cells [5] (OCI-AML3 cells), the glycolytic switch entry is “induce a glycolytic switch”. For the same compound, the oxygen consumption rate entry in the assay on OCI-AML3 leukemic cells [5] (acute injection, 1 μM) is “impaired”. Besides, in the assay with OCI-AML3 cells [6] (setting [8]), the “levels of oxidized glutathione” value is “increased”. The “levels of reduced glutathione” value in the assay on OCI-AML3 cells [6] (setting [8]) was “decreased”. Further, the “levels of citric acid cycle intermediates (citrate, alpha-ketoglutarate, succinate, fumarate, malate)” value in the assay with OCI-AML3 cells [6] (OCI-AML3 cells) is on record as “reduces”. In the assay with OCI-AML3 cells [1], the “OCI-AML3 cells sensitive to the compound (dose response)” value was “sensitive”. Besides, in [7], the “effect on pyruvate dehydrogenase (PDH)” value is recorded as “inhibit pyruvate dehydrogenase (PDH) in an indirect fashion”. Further, the “sensitivity of HOX-high versus HOX-med/low AML cells” value in the assay on AML patient cells (dose response validation screening, large cohort) is “significantly more sensitive”. Also, the “sensitivity of HOX-high versus HOX-med/low patient cells” value in the assay with AML patient cells (primary screen of 60 compounds) is recorded as “significantly more sensitive”. Further, the “effect on ETC Complex I activity” value in the assay with ETC complex I is reported as “inhibitory effect”. In addition, the “nature of inhibitory effect on complex I” value with Complex I is recorded as “NADH-independent (i.e. ubiquinone-dependent)”.
